Test results from US6943279B1, “Amino polyol amine oxidase polynucleotides and related polypeptides and methods of use” (priority 1999, dated 2005).

What was measured:
[1] = Other enzymes tested for ability to modify AP1, radiolabeled TLC; assay type: biochemical; conditions: optimal conditions at 37° Celsius, overnight or longer
Description: (§1) For analysis of APAO activity, an alternative method was used. Equal volumes of sample and ^14C-AP1 (1 mg/ml, pH 8, 50 mM sodium phosphate) were incubated at room temperature for one to six days. Analytical thin-layer chromatography was then carried out on C60 HPK silica gel plates (Whatman #4807-700; 10×10 cm; 0.2 mm thick). After application of from 0.1 to 2 μl of aqueous sample, the plates were air-dried and developed in CHCl3:MeOH:CH3COOH:H20 (55:36:8:1). Plates were then air dried, and exposed to Phosphorlmager screen (Molecular Dynamics) or autoradiographic film. A Storm™ Phosphorlmager (Molecular Dynamics) was used to scan the image produced on the screen.
Other enzymes were tested for their ability to modify AP1. All enzymes were assayed by radiolabeled TLC, as described above, under optimal conditions at 37° Celsius, overnight or longer.

[2] = system: Maize coleoptiles; assay: Effect of FB1 and AP1 on maize coleoptiles; assay type: cell-based; set-up: key to Injury of maize coleoptiles: + = brown necrotic discoloration of coleoptile; − = no symptoms (same as water control); conditions: for Injury of maize coleoptiles: 2 days dark 28° C., then 3 days light
Description: Maize coleoptiles from 4 day dark-grown germinated maize seeds were excised above the growing point and placed in 96-well microtiter plates in the presence of 60 microliters of sterile distilled water containing FB1 or AP1 at approximately equimolar concentrations of 1.5, 0.5, 0.15, 0.05, 0.015, 0.005, 0.0015, or 0.0005 millimolar, along with water controls. After 2 days in the dark at 28° C. the coleoptiles were placed in the light and incubated another 3 days.

[3] = system: BMS cells; assay: Effect of FB1 and AP1 on maize tissue cultured cells (Black Mexican Sweet, BMS); assay type: cell-based; conditions: for concentration at which growth of BMS cells was inhibited: 1 week, liquid culture, 96-well plates
Description: FB1 or AP1 at various concentrations was added to suspensions of BMS cells growing in liquid culture medium in 96-well polystyrene plates. After 1 week the cell density in wells was observed under low power magnification and growth of toxin-treated wells was compared to control wells that received water. […] This represents an approximate 100-fold difference in toxicity to maize tissue cultured cells. […] AP1 was not tested in that study, however.

[4] = system: APAO; assay: APAO activity of crude cell-free extract, TLC; assay type: biochemical, Exophiala spinifera
Description: as §1
A cell-free extract that contains the deaminase activity was obtained by subjecting substrate-induced Exophiala spinifera cells to disruption using a Bead Beater™ in 50 mM Na-phosphate, pH 8.0, and recovering the cell-free supernatant by centrifugation and 0.45 micron filtration. Catabolic activity is assayed by incubating extracts with AP1 (hydrolyzed fumonisin BI backbone) or “^4C-labelled AP1 with the extract and evaluating by TLC on C18 or C60 silica. […] Other amine-containing substrates were tested for modification by the crude extract. […] Preparative amounts of the product, named 2-OP, have also been purified and analyzed by C13 nmr.

[5] = system: APAO enzyme; assay type: biochemical, Exophiala spinifera; conditions: 1 mM substrate; pH 8.0, room temperature
Description: The following assay was used to determine the substrate specificity of the APAO enzyme. […] The APAO enzyme was recombinant enzyme produced,as GST fusion in E. coli, purified over a glutathione affinity column and cleaved with thrombin to remove the GST. All components were mixed at room temperature. The initial rate was determined in a spectrophotometer at 572 nm over one minute by absorbance units/second (BLANK). Ten microliters of APAO at 70 ug/ml was added and mixed. The initial rate was again determined at 572 nm over one minute in absorbance units/second (SAMPLE). The rates were converted to absorbance units/minute. The BLANK value was subtracted from the SAMPLE value. The absorbance units were converted to μM H2O2 wherein 1 μM H2O2 equals 0.138 absorbance units at pH 8.0.

[6] = system: maize callus; conditions: solid medium; cited from earlier work
[7] = system: Lemna tissues; conditions: AP1 versus FB1; cited from earlier work
[8] = system: tomato; conditions: cited from earlier work
[9] = Pichia expression of trAPAO, TLC assay; assay type: biochemical, Pichia pastoris; conditions: pellet suspensions and lysates; 6 days room temperature
Description: The Pichia culture fluids and pellets were assayed for APAO activity as described earlier.
The 50 μl cell pellets were resuspended in 150 μl cold 5OmM Na-phosphate, pH 8.0. and divided into two fresh 500 μl tubes. One tube was kept on ice with no treatment, the pellet suspension, and one tube was used for lysis. An equal volume of 0.1 mm zirconia-silica beads was added to each tube. The tubes were BeadBeatT™ for 15 seconds then cooled on ice 5 minutes. This was repeated three times. The crude lysate was then transferred to another tube for assay or lysate suspension.
The TLC assays were performed as follows, the samples are 1) pellet suspensions; 10 μl; 2) lysate suspensions; 10 μl; 3) media controls-mixed 5 μl media with 5 μl crude fungal enzyme; 10 μl; 4) positive control-used crude fungal enzyme undiluted; 10 μl; 5) substrate control-used 50 mM Na-phosphate, pH8.0; 10 μl. […]
A positive TLC result is obtained if an additional radioactive spot appears at a lower Rf of the produced AP1 modification earlier identified as 2-OP, a deaminated product of AP1. In samples #6 and #52 (without intron) the AP1-modifying enzyme activity (conversion of AP1 to 2-OP) was detected in pellet suspensions and pellet lysates, although the majority of activity was associated with the pellet suspensions. […]

[10] = Site-directed mutagenesis vectors: maize transient expression, APAO or trAPAO activity; assay type: biochemical; conditions: transient expression in maize
Excerpt: Please see the table above entitled “Table of site-directed mutagenesis vectors and enzyme assay results.” Thus, elimination of this glycosylation site is not in itself sufficient to have an active protein upon secretion. This could be due to glycosylation occurring at a second adjacent site (N201-S203). However, no active APAO was recovered when either N201 or S203 is mutated along with S206. […] This is backed up by predicted solvent accessibility numbers for these residues in the 3-D model based on the maize amine oxidase. Please see the table below entitled “Solvent accessibility for cysteine residues of truncated APAO.” The elimination of APAO glycosylation site at amino acids 204 to 206 is not sufficient to allow APAO to be secreted from the ccil and retain full enzyme activity, but elimination of this site may improve chances for obtaining a fully active enzyme once the other roadblock(s) to secretability have been resolved. In other words, elimination of this site may be necessary but not sufficient to produce active secretable APAO.

[11] = Mutated APAO lysates from E coli, Amplex Red assay, substrate FB1; assay type: biochemical; conditions: Glyc(−) APAO lysates from E coli
[12] = Mutated APAO lysates from E coli, Amplex Red assay, substrate AP1; assay type: biochemical; conditions: Glyc(−) APAO lysates from E coli

Molecule	Injury of maize coleoptiles ([2]; 1.5 mM)	Injury of maize coleoptiles ([2]; .0005 mM)	Injury of maize coleoptiles ([2]; .0015 mM)	Injury of maize coleoptiles ([2]; .005 mM)	Injury of maize coleoptiles ([2]; .05 mM)	Injury of maize coleoptiles ([2]; .15 mM)	Injury of maize coleoptiles ([2]; .5 mM)	concentration at which growth of BMS cells was inhibited [3]	RATE [5]	further results
D-amino oxidase: EC 1.4.3.3, porcine kidney: Type X										Result (ability to modify AP1) [1]: negative
CCCC[C@@H](C)[C@@H](OC(=O)C[C@@H](CC(=O)O)C(=O)O)[C@H](C[C@@H](C)C[C@H](O)CCCC[C@@H](O)C[C@H](O)[C@H](C)N)OC(=O)C[C@@H](CC(=O)O)C(=O)O [FB1, fumonisin B1]	+	−	−	−	+	+	+	400 nM	0.1429 μM H2O2/min	modification by the crude extract ([4]; crude cell-free extract of induced Exophiala spinifera, TLC): not modified; concentration giving significant inhibition of maize callus [6]: 1400 nM
CCCC[C@@H](C)[C@@H](O)[C@@H](O)C[C@@H](C)C[C@H](O)CCCC[C@@H](O)C[C@H](O)[C@H](C)N [AP1]	+	−	−	−	−	−	−	40000 nM	0.8876 μM H2O2/min	Injury of maize coleoptiles ([2]; .015 mM): −; difference in toxicity between FB1 and AP1 to maize coleoptiles ([2]; AP1 versus FB1): ≥ 30 fold; difference in toxicity to maize tissue cultured cells ([3]; AP1 versus FB1): ~100 fold; time to complete conversion to 2-OP ([4]; pH 9): 30 min; less toxic than FB1 in Lemna tissues [7]: approx. 40 fold; reduction in toxicity to tomato by AP1 versus FB1 [8]: ~100 fold
trAPAO: truncated, but still functional APAO (SEQ ID NO: 6) (protein, listed as Exophiala spinifera) DNVADVVVVGAGLSGLETARKVQAAGLSCLVLEAMDRVGGKTLSVQSGPGRTTINDLGAAWINDSNQSEVSRLFERFHLEGELQRTTGNSIHQAQDGTTTTAPYGDSLLSEEVASALAELLPVWSQLIEEHSLQDLKASPQAKRLDSVSFAHYCEKELNLPAVLGVANQITRALLGVEAHEISMLFLTDYIKSATGLSNIFSDKKDGGQYMRCKTGMQSICHAMSKELVPGSVHLNTPVAEIEQSASGCTVRSASGAVFRSKKVVVSLPTTLYPTLTFSPPLPAEKQALAENSILGYYSKIVFVWDKPWWREQGFSGVLQSSCDPISFARDTSIDVDRQWSITCFMVGDPGRKWSQQSKQVRQKSVWDQLRAAYENAGAQVPEPANVLEIEWSKQQYFQGAPSAVYGLNDLITLGSALRTPFKSVHFVGTETSLVWKGYMEGAIRSGQRGAAEVVASLVPAA										APAO activity (conversion of AP1 to 2-OP) in Pichia transformants [9]: functions correctly in degrading AP1
S206A: APAO mutated to alter the serine at position 206 to an alanine (SEQ ID NO: 33) (protein, Glyc(-) APAO; mutation in glycosylation sites (Exophiala spinifera)) MALAPSYINPPNVASPAGYSHVGVGPDGGRYVTIAGQIGQDASGVTDPAYEKQVAQAFANLRACLAAVGATSNDVTKLNYYIVDYAPSKLTAIGDGLKATFALDRLPPCTLVPVSALSSPEYLFEVDATALVPGHTTPDNVADVVVVGAGLSGLETARKVQAAGLSCLVLEAMDRVGGKTLSVQSGPGRTTINDLGAAWINDSNQAEVSRLFERFHLEGELQRTTGNSIHQAQDGTTTTAPYGDSLLSEEVASALAELLPVWSQLIEEHSLQDLKASPQAKRLDSVSFAHYCEKELNLPAVLGVANQITRALLGVEAHEISMLFLTDYIKSATGLSNIFSDKKDGGQYMRCKTGMQSICHAMSKELVPGSVHLNTPVAEIEQSASGCTVRSASGAVFRSKKVVVSLPTTLYPTLTFSPPLPAEKQALAENSILGYYSKIVFVWDKPWWREQGFSGVLQSSCDPISFARDTSIDVDRQWSITCFMVGDPGRKWSQQSKQVRQKSVWDQLRAAYENAGAQVPEPANVLEIEWSKQQYFQGAPSAVYGLNDLITLGSALRTPFKSVHFVGTETSLVWKGYMEGAIRSGQRGAAEVVASLVPAA										Maize expression vector, APAO or trAPAO Activity (Act) [10]: no detectable enzyme activity; Conclusion [11]: Slightly active; M H2O2/min [11]: 0.07 μM H2O2/min; Conclusion [12]: Partially Active; M H2O2/min [12]: 0.85 μM H2O2/min
